# Source: patent US20230389548A1, “MIXTURES OF PYRIMIDINES AS HERBICIDAL COMPOSITIONS” (SYNGENTA CROP PROTECTION AG, priority 2020, published 2023)
# Experiments:
# Test in all cases: Post-emergence glasshouse spray test, visual percentage phytotoxicity after 13 days
# Assay type in all cases: in vivo
# [1] = system: Ipomoea hederacea (IPOHE); details: for IPOHE percentage phytotoxicity: B1
# Experimental: (§1) Seeds of Setaria faberi (SETFA), Echinochloa crus-galli (ECHCG), Digitaria sanguinalis (DIGSA), Lolium perenne (LOLPE), Alopecurus myosuroides (ALOMY), Chenopodium album (CHEAL), Ipomoea hederacea (IPOHE), Stellaria media (STEME), Abutilon threophrasti (ABUTH), Amaranthus retroflexus (AMARE) were sown in standard sterilised soil in pots. After cultivation for 8 days under controlled conditions in a glasshouse (at 24/19° C., day/night; 16 hours light; no humidity control), the plants were sprayed at 500 l/Ha with an aqueous spray solution derived from the formulation of the technical active ingredients in a small amount of acetone and a solvent and emulsifier mixture referred to as IF50 (11.12% Emulsogen EL360™+44.44% N-methylpyrrolidone+44.44% Dowanol DPM glycol ether), to create a 50 g/l solution which was then diluted using 0.2% Genapol XO80 (CAS Number: 9043-30-5) as diluent to give the desired final dose of test compound.
# (§2) Where active ingredients were applied as mixtures, aqueous spray solutions were prepared as above, containing both active ingredients.
# (§3) The test plants were then grown under controlled conditions in a glasshouse (at 24/18° C., day/night; 15 hours light; 50% humidity) and watered twice daily. After 13 days, the test was evaluated visually for percentage phytotoxicity to the plants (where 100=total damage to plant; 0=no damage to plant; and NC=not captured) when compared to control untreated plants. Two to four replicates were applied for each treatment in a randomised block test design.
# (§4) 22., E=X+Y−(X*Y/100), where
# (§5) X=average percent phytotoxicity of herbicide A when applied at a certain rate Y=average percent phytotoxicity using herbicide B when applied at a certain rate E=the expected effect of the mixture of herbicides A and B as calculated from the Colby formula.
# [2] = system: Stellaria media (STEME); details: for STEME percentage phytotoxicity: B1
# Experimental: as §1, §2, §3, §4, §5
# [3] = system: Amaranthus retroflexus (AMARE); details: for AMARE percentage phytotoxicity: B1
# Experimental: as §1, §2, §3, §4, §5
# [4] = system: Digitaria sanguinalis (DIGSA); details: for DIGSA percentage phytotoxicity: B1
# Experimental: as §1, §2, §3, §4, §5
# [5] = system: Alopecurus myosuroides (ALOMY); details: for ALOMY percentage phytotoxicity: B1
# Experimental: as §1, §2, §3, §4, §5
# [6] = system: Chenopodium album (CHEAL); details: for CHEAL percentage phytotoxicity: B1
# Experimental: as §1, §2, §3, §4, §5
# [7] = system: Lolium perenne (LOLPE); details: for LOLPE percentage phytotoxicity: B1
# Experimental: as §1, §2, §3, §4, §5
# [8] = system: Setaria faberi (SETFA); details: for SETFA percentage phytotoxicity: B1
# Experimental: as §1, §2, §3, §4, §5
# [9] = system: Abutilon threophrasti (ABUTH); details: for ABUTH percentage phytotoxicity: B1
# Experimental: as §1, §2, §3, §4, §5
structure (smiles),measurement,setting,value
Nc1c(F)c(-c2ccc3cc[nH]c3c2F)nc(C(=O)O)c1Cl [B-VI],IPOHE percentage phytotoxicity,[1]; 0.625 g/ha post-emergence,13%
same,IPOHE percentage phytotoxicity,[1]; 1.25 g/ha post-emergence,35%
same,IPOHE percentage phytotoxicity,[1]; 2.5 g/ha post-emergence,38%
same,IPOHE percentage phytotoxicity,[1]; 5 g/ha post-emergence,48%
same,IPOHE percentage phytotoxicity,[1]; 10 g/ha post-emergence,50%
same,Observed phytotoxicity IPOHE,"[1]; B2.6.4, 2.5 g/ha post-emergence",38%
same,STEME percentage phytotoxicity,[2]; 0.625 g/ha post-emergence,78%
same,STEME percentage phytotoxicity,[2]; 1.25 g/ha post-emergence,50%
same,STEME percentage phytotoxicity,[2]; 2.5 g/ha post-emergence,65%
same,STEME percentage phytotoxicity,[2]; 5 g/ha post-emergence,98%
same,STEME percentage phytotoxicity,[2]; 10 g/ha post-emergence,90%
same,Observed phytotoxicity STEME,"[2]; B2.6.5, 1.25 g/ha post-emergence",50%
same,AMARE percentage phytotoxicity,[3]; 0.625 g/ha post-emergence,58%
same,AMARE percentage phytotoxicity,[3]; 1.25 g/ha post-emergence,65%
same,AMARE percentage phytotoxicity,[3]; 2.5 g/ha post-emergence,73%
same,AMARE percentage phytotoxicity,[3]; 5 g/ha post-emergence,95%
same,AMARE percentage phytotoxicity,[3]; 10 g/ha post-emergence,90%
same,DIGSA percentage phytotoxicity,[4]; 0.625 g/ha post-emergence,0%
same,DIGSA percentage phytotoxicity,[4]; 1.25 g/ha post-emergence,0%
same,DIGSA percentage phytotoxicity,[4]; 2.5 g/ha post-emergence,0%
same,DIGSA percentage phytotoxicity,[4]; 5 g/ha post-emergence,8%
same,DIGSA percentage phytotoxicity,[4]; 10 g/ha post-emergence,43%
same,Observed phytotoxicity DIGSA,"[4]; B2.6.2, 0.625 g/ha post-emergence",0%
same,Observed phytotoxicity DIGSA,"[4]; B2.6.2, 1.25 g/ha post-emergence",0%
same,Observed phytotoxicity DIGSA,"[4]; B2.6.2, 5 g/ha post-emergence",8%
same,ALOMY percentage phytotoxicity,[5]; 0.625 g/ha post-emergence,0%
same,ALOMY percentage phytotoxicity,[5]; 1.25 g/ha post-emergence,0%
same,ALOMY percentage phytotoxicity,[5]; 2.5 g/ha post-emergence,0%
same,ALOMY percentage phytotoxicity,[5]; 5 g/ha post-emergence,33%
same,ALOMY percentage phytotoxicity,[5]; 10 g/ha post-emergence,30%
same,CHEAL percentage phytotoxicity,[6]; 0.625 g/ha post-emergence,58%
same,CHEAL percentage phytotoxicity,[6]; 1.25 g/ha post-emergence,73%
same,CHEAL percentage phytotoxicity,[6]; 2.5 g/ha post-emergence,75%
same,CHEAL percentage phytotoxicity,[6]; 5 g/ha post-emergence,94%
same,CHEAL percentage phytotoxicity,[6]; 10 g/ha post-emergence,84%
same,LOLPE percentage phytotoxicity,[7]; 0.625 g/ha post-emergence,0%
same,LOLPE percentage phytotoxicity,[7]; 1.25 g/ha post-emergence,0%
same,LOLPE percentage phytotoxicity,[7]; 2.5 g/ha post-emergence,0%
same,LOLPE percentage phytotoxicity,[7]; 5 g/ha post-emergence,8%
same,LOLPE percentage phytotoxicity,[7]; 10 g/ha post-emergence,8%
same,Observed phytotoxicity LOLPE,"[7]; B2.6.3, 5 g/ha post-emergence",8%
same,SETFA percentage phytotoxicity,[8]; 0.625 g/ha post-emergence,0%
same,SETFA percentage phytotoxicity,[8]; 1.25 g/ha post-emergence,0%
same,SETFA percentage phytotoxicity,[8]; 2.5 g/ha post-emergence,0%
same,SETFA percentage phytotoxicity,[8]; 5 g/ha post-emergence,48%
same,SETFA percentage phytotoxicity,[8]; 10 g/ha post-emergence,70%
same,Observed phytotoxicity SETFA,"[8]; B2.6.1, 0.625 g/ha post-emergence",0%
same,Observed phytotoxicity SETFA,"[8]; B2.6.1, 1.25 g/ha post-emergence",0%
same,ABUTH percentage phytotoxicity,[9]; 0.625 g/ha post-emergence,38%
same,ABUTH percentage phytotoxicity,[9]; 1.25 g/ha post-emergence,55%
same,ABUTH percentage phytotoxicity,[9]; 2.5 g/ha post-emergence,73%
same,ABUTH percentage phytotoxicity,[9]; 5 g/ha post-emergence,78%
same,ABUTH percentage phytotoxicity,[9]; 10 g/ha post-emergence,78%
CS(=O)(=O)c1ccc(C(=O)C2C(=O)CCCC2=O)c(Cl)c1OCCC1OCCO1 [B-II],IPOHE percentage phytotoxicity,[1]; 0.625 g/ha post-emergence,3%
same,IPOHE percentage phytotoxicity,[1]; 1.25 g/ha post-emergence,10%
same,IPOHE percentage phytotoxicity,[1]; 2.5 g/ha post-emergence,23%
same,IPOHE percentage phytotoxicity,[1]; 5 g/ha post-emergence,38%
same,IPOHE percentage phytotoxicity,[1]; 10 g/ha post-emergence,48%
same,Observed phytotoxicity IPOHE,"[1]; B2.4.5, 2.5 g/ha post-emergence",23%
same,Observed phytotoxicity IPOHE,"[1]; B2.4.5, 10 g/ha post-emergence",48%
same,STEME percentage phytotoxicity,[2]; 0.625 g/ha post-emergence,0%
same,STEME percentage phytotoxicity,[2]; 1.25 g/ha post-emergence,13%
same,STEME percentage phytotoxicity,[2]; 2.5 g/ha post-emergence,45%
same,STEME percentage phytotoxicity,[2]; 5 g/ha post-emergence,35%
same,STEME percentage phytotoxicity,[2]; 10 g/ha post-emergence,38%
same,AMARE percentage phytotoxicity,[3]; 0.625 g/ha post-emergence,0%
same,AMARE percentage phytotoxicity,[3]; 1.25 g/ha post-emergence,5%
same,AMARE percentage phytotoxicity,[3]; 2.5 g/ha post-emergence,10%
same,AMARE percentage phytotoxicity,[3]; 5 g/ha post-emergence,28%
same,AMARE percentage phytotoxicity,[3]; 10 g/ha post-emergence,48%
same,Observed phytotoxicity AMARE,"[3]; B2.4.8, 2.5 g/ha post-emergence",10%
same,DIGSA percentage phytotoxicity,[4]; 0.625 g/ha post-emergence,0%
same,DIGSA percentage phytotoxicity,[4]; 1.25 g/ha post-emergence,0%
same,DIGSA percentage phytotoxicity,[4]; 2.5 g/ha post-emergence,0%
same,DIGSA percentage phytotoxicity,[4]; 5 g/ha post-emergence,0%
same,DIGSA percentage phytotoxicity,[4]; 10 g/ha post-emergence,0%
same,Observed phytotoxicity DIGSA,"[4]; B2.4.2, 2.5 g/ha post-emergence",0%
same,Observed phytotoxicity DIGSA,"[4]; B2.4.2, 5 g/ha post-emergence",0%
same,Observed phytotoxicity DIGSA,"[4]; B2.4.2, 10 g/ha post-emergence",0%
same,ALOMY percentage phytotoxicity,[5]; 0.625 g/ha post-emergence,0%
same,ALOMY percentage phytotoxicity,[5]; 1.25 g/ha post-emergence,0%
same,ALOMY percentage phytotoxicity,[5]; 2.5 g/ha post-emergence,0%
same,ALOMY percentage phytotoxicity,[5]; 5 g/ha post-emergence,0%
same,ALOMY percentage phytotoxicity,[5]; 10 g/ha post-emergence,0%
same,Observed phytotoxicity ALOMY,"[5]; B2.4.4, 10 g/ha post-emergence",0%
same,CHEAL percentage phytotoxicity,[6]; 0.625 g/ha post-emergence,0%
same,CHEAL percentage phytotoxicity,[6]; 1.25 g/ha post-emergence,0%
same,CHEAL percentage phytotoxicity,[6]; 2.5 g/ha post-emergence,38%
same,CHEAL percentage phytotoxicity,[6]; 5 g/ha post-emergence,53%
same,CHEAL percentage phytotoxicity,[6]; 10 g/ha post-emergence,65%
same,Observed phytotoxicity CHEAL,"[6]; B2.4.7, 1.25 g/ha post-emergence",0%
same,LOLPE percentage phytotoxicity,[7]; 0.625 g/ha post-emergence,0%
same,LOLPE percentage phytotoxicity,[7]; 1.25 g/ha post-emergence,0%
same,LOLPE percentage phytotoxicity,[7]; 2.5 g/ha post-emergence,0%
same,LOLPE percentage phytotoxicity,[7]; 5 g/ha post-emergence,0%
same,LOLPE percentage phytotoxicity,[7]; 10 g/ha post-emergence,0%
same,Observed phytotoxicity LOLPE,"[7]; B2.4.3, 5 g/ha post-emergence",0%
same,Observed phytotoxicity LOLPE,"[7]; B2.4.3, 10 g/ha post-emergence",0%
same,SETFA percentage phytotoxicity,[8]; 0.625 g/ha post-emergence,0%
same,SETFA percentage phytotoxicity,[8]; 1.25 g/ha post-emergence,0%
same,SETFA percentage phytotoxicity,[8]; 2.5 g/ha post-emergence,0%
same,SETFA percentage phytotoxicity,[8]; 5 g/ha post-emergence,0%
same,SETFA percentage phytotoxicity,[8]; 10 g/ha post-emergence,3%
same,Observed phytotoxicity SETFA,"[8]; B2.4.1, 5 g/ha post-emergence",0%
same,ABUTH percentage phytotoxicity,[9]; 0.625 g/ha post-emergence,3%
same,ABUTH percentage phytotoxicity,[9]; 1.25 g/ha post-emergence,38%
same,ABUTH percentage phytotoxicity,[9]; 2.5 g/ha post-emergence,50%
same,ABUTH percentage phytotoxicity,[9]; 5 g/ha post-emergence,58%
same,ABUTH percentage phytotoxicity,[9]; 10 g/ha post-emergence,63%
same,Observed phytotoxicity ABUTH,"[9]; B2.4.6, 0.625 g/ha post-emergence",3%
